In patent US6093730A, “Substituted isoquinoline-3-carboxamides, their preparation and their use as pharmaceuticals” (Hoechst Marion Roussel Deutschland GmbH, priority 1997, dated 2000):
One block for each molecule: values may come before it.

Assays:
collagen biosynthesis = conditions: Franklin et al.; cited from earlier work
liver = conditions: rats; Franklin 1997; cited from earlier work
prolyl hydroxylase [1] = conditions: Majamaa et al.; cited from earlier work
prolyl hydroxylase [2] = conditions: Tschank et al.; cited from earlier work
prolyl-4-hydroxylase [3] = target: T1, prolyl-4-hydroxylase (Gallus gallus, UniProt P16924); assay: Combined liver perfusion/enzyme assay (prolyl-4-hydroxylase inhibition after rat liver perfusion); type: biochemical, chicken; set-up: The enzyme is purified from 14 day-old chicken embryos; from tissue; host or cells: 14-day-old chicken embryos; conditions: after 120 min rat liver perfusion; 100 or 50 μg/ml added at t=0 and 60 min
T1 sequence (P16924 1-516): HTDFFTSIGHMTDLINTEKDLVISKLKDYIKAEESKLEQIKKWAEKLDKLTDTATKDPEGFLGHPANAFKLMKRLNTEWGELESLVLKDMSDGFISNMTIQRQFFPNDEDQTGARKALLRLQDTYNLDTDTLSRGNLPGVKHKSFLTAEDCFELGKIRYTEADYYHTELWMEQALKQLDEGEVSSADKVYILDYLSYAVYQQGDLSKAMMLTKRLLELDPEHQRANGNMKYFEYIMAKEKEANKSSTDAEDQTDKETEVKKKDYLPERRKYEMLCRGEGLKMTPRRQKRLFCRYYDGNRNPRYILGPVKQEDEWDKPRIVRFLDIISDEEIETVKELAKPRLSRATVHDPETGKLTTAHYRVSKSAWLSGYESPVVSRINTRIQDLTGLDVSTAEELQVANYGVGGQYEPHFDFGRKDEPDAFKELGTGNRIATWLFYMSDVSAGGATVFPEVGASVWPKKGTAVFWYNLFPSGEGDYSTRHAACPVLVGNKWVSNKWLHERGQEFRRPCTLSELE
T1 sequence (P09102 23-515 partner): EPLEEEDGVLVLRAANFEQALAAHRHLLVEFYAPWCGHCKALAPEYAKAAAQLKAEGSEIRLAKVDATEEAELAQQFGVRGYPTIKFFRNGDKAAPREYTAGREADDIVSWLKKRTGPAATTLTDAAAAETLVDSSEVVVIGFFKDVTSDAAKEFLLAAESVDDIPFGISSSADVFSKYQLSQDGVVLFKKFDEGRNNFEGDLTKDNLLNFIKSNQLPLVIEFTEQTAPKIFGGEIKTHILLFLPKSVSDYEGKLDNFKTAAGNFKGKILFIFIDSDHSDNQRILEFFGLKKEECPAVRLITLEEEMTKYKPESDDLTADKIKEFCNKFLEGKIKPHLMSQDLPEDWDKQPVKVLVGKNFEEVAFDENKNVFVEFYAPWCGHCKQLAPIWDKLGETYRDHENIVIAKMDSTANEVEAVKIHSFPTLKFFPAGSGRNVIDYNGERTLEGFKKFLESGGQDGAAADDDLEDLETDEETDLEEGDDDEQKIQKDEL
Experimental: In order to investigate the inhibitory action of such active proinhibitors, the compounds were employed in perfusion experiments on isolated rat liver. The inhibitory action was then measured in a prolyl-4-hydroxylase assay.
Unfasted male Wistar rats of 200-300 g body weight (Hoe:WISKf(SPF71)) were anesthetized with pentobarbital (5 mg/100 g of body weight i.p.). After cannulation of the portal vein, the liver was washed with 100 ml of heparinized saline solution (5 lU/ml) of 37° C. for 3 min. The fluid left the liver by the incised vena cava. The organ was then removed, attached to the perfusion apparatus and perfused at a flow rate of 30 ml/min with 100 ml of medium for 2 hours under recirculating conditions. Krebs-Ringer buffer containing bovine erythrocytes was used for the perfusion. For this, bovine blood was mixed 1:1 with a citrate solution in the slaughterhouse immediately after removal. This mixture was centrifuged at 6000 rpm for 10 min and the supernatant was removed. This process was repeated once using saline solution and twice using Krebs-Ringer buffer. The final perfusion solution contained 33.3% of the erythrocyte sediment and 66.7% of Krebs-Ringer buffer (Schimassek, H. BIOCHEM. Z. 336 (1963) 460-467).
Perfusion apparatus (Ryoo and Tarver, H.P.S.E.B.M. 128 (1968) 760-72): The central element of the apparatus is a thermostated cylinder having a removable plate for the storage of the organ. The outlet tube is extended and its lower end is attached to a peristaltic pump. Before the return of the perfusate into the organ bath, it is passed through a glass spiral, which serves as a heat exchanger, which keeps the temperature constant at 37° C. At the bottom of the cylinder, the perfusate is aerated with 70 ml of a CO2 /O2 mixture (5:95%) per minute. In order to avoid foam formation, 14 μl of 0.1% strength Genapol® PF-10 solution are added per ml of perfusion solution. Samples for analysis are removed from the perfusate at a position before entry into the perfused organ.
The test substances were added to the perfusion solution at time t=0 and 60 min in concentrations of 100 or 50 μg/ml in each case. After a perfusion time of 120 min, a sample of the perfusion solution was removed for analysis.
The inhibitory activity of the metabolites which are formed in the liver during the two-hour perfusion was determined in an in vitro prolyl-4-hydroxylase assay. The enzyme is purified from 14 day-old chicken embryos as described in the literature (Tuderman et al., EUR.J.BIOCHEM. 52 (1975) 9-16; Kedersha and Berg, COLLAGEN REL. RES. 1 (1981) 345-53). The enzyme test is carried out according to Kaule and Gunzler, ANAL. BIOCHEM. 184 (1990) 291-97). Dose-response curves were obtained by means of dilution series, starting from the undiluted perfusion solution.

hydroxyproline formation = assay: Carbon tetrachloride-induced liver fibrosis model in rats, inhibition of hydroxyproline formation; type: in vivo, rat; conditions: two weeks with CCl4
Experimental: The antifibrotic action was determined in the model of carbon tetrachloride-induced liver fibrosis. For this, rats were treated twice weekly with CCl4 (1 ml/kg) dissolved in olive oil. The test substance was administered daily, if appropriate even twice daily, orally or intraperitoneally dissolved in a suitable compatible solvent. The extent of the liver fibrosis was determined histologically and the proportion of collagen in the liver was analyzed by hydroxyproline determination as described in Kivirikko et al., ANAL. BIOCHEM. […] The fibrogenesis activity was determined by radioimmunological determination of collagen fragments and procollagen peptides in the serum.
The measurement of the inhibition of hydroxyproline formation by the test substances was based on this level.
Here the experimental animals were treated for two weeks only with carbon tetrachloride, then for the next two weeks with carbon tetrachloride and test substance. The test substances were administered intraperitoneally twice per day in the total amount indicated below in Table II,

prolyl-4-hydroxylase [4] = target: T1, prolyl-4-hydroxylase; assay: Inhibition of prolyl-4-hydroxylase (Table I); type: biochemical
Experimental: The inhibition of this enzyme was determined as described by Kaule and Gunzler, ANAL. BIOCHEM.

liver steatosis = assay: Liver steatosis on treatment of male rats; type: in vivo, rat; conditions: up to six weeks, male rats (Fischer F344, Sprague Dawley, Wistar), 2×25 mg/kg i.p/day, in water/NaHCO3
[5] = 40 mg/kg (total), intraperitoneal twice per day

Compound: O=C(O)CNC(=O)c1ncc2cc(Br)ccc2c1O [N-((7-bromo-4-hydroxy-isoquinolin-3-yl)carbonyl)glycine]
in-vivo activity on collagen biosynthesis (collagen biosynthesis): in-vivo inhibition of collagen biosynthesis | toxic action on the liver (liver): toxic action on the liver (steatosis)

Compound: O=C(O)CNC(=O)c1ncc2ccccc2c1O [N-((4-Hydroxyisoquinolin-3-yl)carbonyl)glycine]
in-vivo activity on collagen biosynthesis (collagen biosynthesis): poor

Compound: O=C(O)c1ccc(C(=O)O)nc1 [pyridine-2,5-dicarboxylic acid]
inhibition of prolyl hydroxylase (prolyl hydroxylase [1]): effectively inhibited | activity as inhibitors in cell culture (prolyl hydroxylase [2]): only active as inhibitors in very high concentrations

Compound: O=C(O)c1ccnc(C(=O)O)c1 [pyridine-2,4-dicarboxylic acid]
inhibition of prolyl hydroxylase (prolyl hydroxylase [1]): effectively inhibited | activity as inhibitors in cell culture (prolyl hydroxylase [2]): only active as inhibitors in very high concentrations

Compound: O=C(O)CNC(=O)c1nc(Cl)c2ccccc2c1O [Example 9, N-((1-Chloro-4-hydroxyisoquinolin-3-yl)carbonyl)glycine]
IC50 (prolyl-4-hydroxylase [4]): 2.3 µM | Change in hydroxyproline formation (hydroxyproline formation; 20 mg/kg (total), intraperitoneal twice per day): -67% | Change in hydroxyproline formation (hydroxyproline formation; [5]): -65% | Change in hydroxyproline formation (hydroxyproline formation; 100 mg/kg (total), intraperitoneal twice per day): -58% | Change in hydroxyproline formation (hydroxyproline formation; 100 mg/kg, oral administration): -71% | liver steatosis (liver steatosis): It was not possible to demonstrate any liver steatosis

The next lines start with results.

IC50 (prolyl-4-hydroxylase [3]): 16.6 µM
Compound: CC(C)Oc1ccc2c(Cl)nc(C(=O)NCCO)c(O)c2c1 [Example 20, 1-Chloro-4-hydroxy-6-(2-propyloxy)isoquinoline-3-carboxylic acid N-(2-hydroxyethyl)amide]

IC50 (prolyl-4-hydroxylase [3]): 21.7 µM
Compound: CCCCOc1ccc2c(O)c(C(=O)NCCO)nc(Cl)c2c1 [Example 23, 7-(1-Butyloxy)-1-chloro-4-hydroxyisoquinoline-3-carboxylic acid N-(2-hydroxyethyl)amide]

IC50 (prolyl-4-hydroxylase [3]): 10.5 µM
Compound: CC(C)Oc1ccc2c(O)c(C(=O)NCCO)nc(Cl)c2c1 [Example 19, 1-Chloro-4-hydroxy-7-(2-propyloxy)isoquinoline-3-carboxylic acid N-(2-hydroxyethyl)amide]
Change in hydroxyproline formation (hydroxyproline formation; [5]): -39%

IC50 (prolyl-4-hydroxylase [3]): 6.4 µM
Compound: COc1ccc2c(Cl)nc(C(=O)NCCO)c(O)c2c1 [Example 22, 1-Chloro-4-hydroxy-6-methoxyisoquinoline-3-carboxylic acid N-(2-hydroxyethyl)amide]

IC50 (prolyl-4-hydroxylase [3]): 7.5 µM
Compound: COc1ccc2c(O)c(C(=O)NCCO)nc(Cl)c2c1 [Example 21, 1-Chloro-4-hydroxy-7-methoxyisoquinoline-3-carboxylic acid N-(2-hydroxyethyl)amide]
